# Experiments:
# [1] = system: acyl-CoA:cholesterol acyltransferase (ACAT); assay: Inhibitory activity on acyl-CoA:cholesterol acyltransferase (ACAT), microsomal fraction of intestinal mucosa, [1-14C]oleyl-CoA incorporation into cholesterol esters; type: biochemical, white rabbit; details: compound concentration 0.01 µm; rabbit intestinal mucosa microsomes
# Procedure: The enzyme used in the test was prepared according to the method of Heider et al. [J. Lipid Res. 24, 1127 (1983)]. A white rabbit was killed by blood-letting under anesthesia, after which its intestinal mucosa was collected and then homogenized, and microsomal fraction was obtained by stepwise centrifugation. The microsomal fraction was suspended in 0.154 M phosphate buffer (pH 7.4) and stored at -80°C until use.
# ACAT activity was determined by a modification of the method of Helgerud et al. [J. Lipid Res. 22, 271 (1981)] by measuring radioactivity incorporated into cholesterol esters from [1-^14C]oleyl-CoA, as an indication. As to the ACAT-inhibitory activity of each compound to be tested, the inhibition rate was calculated by the following equation. Inhibition rate (%) =([ACAT activity of control group which was given solvent]-[ACAT activity of group treated with compound to be tested])/([ACAT activity of control group which was given solvent])x 100 [formula]
# [2] = system: rats fed on a high-cholesterol diet; assay: Serum cholesterol lowering activity in rats fed on a high-cholesterol diet; type: in vivo, Male Sprague-Dawley rats; details: Rattus norvegicus, 96 h; total serum cholesterol; 30 mg per kg of body weight per day for 4 days, suspended in 0.5% carboxymethyl cellulose; blood 24 hours after last administration; read-out: Reduction rate (%)
# Procedure: Male Sprague-Dawley rats of 6-week-old were divided into three groups. The first group (normal group) was fed an ordinary diet for 4 days. The second group (control group) was fed a high cholesterol diet (containing 1.0% cholesterol, 1.0% cholic acid and 8.5% coconut oil) for 4 days. The third group (treated group) was fed a high cholesterol diet and was treated with a compound for 4 days.
# Simultaneously with the beginning of the above feeding, the compound was suspended in a 0.5% carboxymethyl cellulose solution and administered to the treated group, in a dose of 30 mg (in terms of the compound) per kg of body weight per day for 4 days. A 0.5% carboxymethyl cellulose solution was also administered to the normal group and the control group in the same manner as above.
# After 24 hours of the last administration, blood was collected and the cholesterol concentration in serum was measured by an enzymatic method. The reduction rate of the total serum cholesterol concentration was calculated from values obtained for the three groups by the following equation. Choresterol reduction rate (%) =((A) - (B))/((A) - (C))x 100 [formula] wherein A: the serum cholesterol concentration of the control group. B: the serum cholesterol concentration of the treated group. C: the serum cholesterol concentration of the normal group.
smiles,measurement,setting,value
"CC(C)c1cccc(C(C)C)c1NC(=O)Nc1nc(-c2ccccc2)n(Cc2ccccc2)c1-c1ccccc1Cl [Compound 37, N-[1-Benzyl-5-(2-chlorophenyl)-2-phenylimidazol-4-yl]-N'-(2,6-diisopropylphenyl)urea]",Inhibition rate %,[1],80.4%
same,inhibition in vivo at 30 mg/kg,[2],59%

# — patent EP0761658A1, “Azole-phenyl urea derivatives as ACAT inhibitors and their production” (NIHON NOHYAKU CO., LTD., priority 1995, dated 1997)
